In PubChem BioAssay AID220 (DTP/NCI, 2004):
Values joined by “and” are separate entries in the source; they are usually repeats but may differ in a detail not shown here. Identical values can stand only once. Inconclusive results are not listed.

Tested on: CD8F1 mice, subcutaneous mammary adenocarcinoma, T/C%
Experiment: NCI In Vivo Anticancer Drug Screen. Data for tumor model Mammary Adenocarcinoma CD8F1 (subcutaneous) in CD8F1
Settings: higher = larger tumour
Summary of the method: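 Transplantable tumors were established in mice, animals were dosed with compound or vehicle, and survival or tumor size was then measured in both groups. The treated result was divided by the control result.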

With `CCC(C)Nc1ccc(N)cc1` (configuration not stated) the T/C (endpoint: median tumor weight (est.), dose: 0.18 mg/kg/injection, schedule: Q07DX005 (ip), vehicle: Klucel (hydroxypropylcellulose) (HPC)) was 90 % of control, the T/C (endpoint: median tumor weight (est.), dose: 0.37 mg/kg/injection, schedule: Q07DX005 (ip), vehicle: Klucel (hydroxypropylcellulose) (HPC)) was 92 % of control and the T/C (endpoint: median tumor weight (est.), dose: 0.75 mg/kg/injection, schedule: Q07DX005 (ip), vehicle: Klucel (hydroxypropylcellulose) (HPC)) was 86 % of control. For the same compound, the T/C (endpoint: median tumor weight (est.), dose: 1.5 mg/kg/injection, schedule: Q07DX005 (ip), vehicle: Klucel (hydroxypropylcellulose) (HPC)) was 107 % of control, the T/C (endpoint: median tumor weight change, dose: 0.2 mg/kg/injection, schedule: Q01DX001 (ip), vehicle: Klucel (hydroxypropylcellulose) (HPC)) was 123 % of control and the T/C (endpoint: median tumor weight change, dose: 0.37 mg/kg/injection, schedule: Q01DX001 (ip), vehicle: Klucel (hydroxypropylcellulose) (HPC)) was 93 % of control. For the same compound, the T/C (endpoint: median tumor weight change, dose: 0.75 mg/kg/injection, schedule: Q01DX001 (ip), vehicle: Klucel (hydroxypropylcellulose) (HPC)) was 89 % of control, the T/C (endpoint: median tumor weight change, dose: 1.5 mg/kg/injection, schedule: Q01DX001 (ip), vehicle: Klucel (hydroxypropylcellulose) (HPC)) was 101 % of control and the T/C (endpoint: median tumor weight change, dose: 3.0 mg/kg/injection, schedule: Q01DX001 (ip), vehicle: Klucel (hydroxypropylcellulose) (HPC)) was 119 % of control.
With `CC(=O)OC(C)C1C2=C(C(=O)CC1(C)O)C(=O)c1c(ccc(-c3ccc4c(c3O)C(=O)C3=C(C4=O)C(C(C)OC(C)=O)C(C)(O)CC3=O)c1O)C2=O` (configuration not stated) the T/C (endpoint: median tumor weight change, dose: 3.75 mg/kg/injection, schedule: Q01DX001 (ip), vehicle: saline with Tween-80) was 105 % of control, the T/C (endpoint: median tumor weight change, dose: 7.5 mg/kg/injection, schedule: Q01DX001 (ip), vehicle: saline with Tween-80) was 42 % of control and the T/C (endpoint: median tumor weight change, dose: 15.0 mg/kg/injection, schedule: Q01DX001 (ip), vehicle: saline with Tween-80) was 88 % of control. The T/C (endpoint: median tumor weight change, dose: 30.0 mg/kg/injection, schedule: Q01DX001 (ip), vehicle: saline with Tween-80) was 83 % of control.
For `CCCCCCC1C=Cc2ccccc21` (configuration not stated), the T/C (endpoint: median tumor weight (est.), dose: 6.25 mg/kg/injection, schedule: Q07DX005 (ip), vehicle: Klucel (hydroxypropylcellulose) (HPC)) was 65 % of control, the T/C (endpoint: median tumor weight (est.), dose: 12.5 mg/kg/injection, schedule: Q07DX005 (ip), vehicle: Klucel (hydroxypropylcellulose) (HPC)) was 61 % of control and the T/C (endpoint: median tumor weight (est.), dose: 25.0 mg/kg/injection, schedule: Q07DX005 (ip), vehicle: Klucel (hydroxypropylcellulose) (HPC)) was 84 % of control. The T/C (endpoint: median tumor weight (est.), dose: 50.0 mg/kg/injection, schedule: Q07DX005 (ip), vehicle: Klucel (hydroxypropylcellulose) (HPC)) was 86 % of control and the T/C (endpoint: median tumor weight (est.), dose: 100.0 mg/kg/injection, schedule: Q07DX005 (ip), vehicle: Klucel (hydroxypropylcellulose) (HPC)) was 66 % of control.
For `CC1(C)CC23C4COC(=O)C2CCC1C3CC4=O` (configuration not stated), the T/C (endpoint: median tumor weight (est.), dose: 18.0 mg/kg/injection, schedule: Q07DX005 (ip), vehicle: DMSO) was 72 % of control, the T/C (endpoint: median tumor weight (est.), dose: 18.0 mg/kg/injection, schedule: Q07DX005 (ip), vehicle: Klucel (hydroxypropylcellulose) (HPC)) was 98 % of control and the T/C (endpoint: median tumor weight (est.), dose: 36.0 mg/kg/injection, schedule: Q07DX005 (ip), vehicle: DMSO) was 79 % of control. The T/C (endpoint: median tumor weight (est.), dose: 36.0 mg/kg/injection, schedule: Q07DX005 (ip), vehicle: Klucel (hydroxypropylcellulose) (HPC)) was 89 % of control, the T/C (endpoint: median tumor weight (est.), dose: 72.0 mg/kg/injection, schedule: Q07DX005 (ip), vehicle: Klucel (hydroxypropylcellulose) (HPC)) was 97 % of control and the T/C (endpoint: median tumor weight (est.), dose: 144.0 mg/kg/injection, schedule: Q07DX005 (ip), vehicle: Klucel (hydroxypropylcellulose) (HPC)) was 71 % of control. The T/C (endpoint: median tumor weight (est.), dose: 288.0 mg/kg/injection, schedule: Q07DX005 (ip), vehicle: DMSO) was 87 % of control and the T/C (endpoint: median tumor weight (est.), dose: 288.0 mg/kg/injection, schedule: Q07DX005 (ip), vehicle: Klucel (hydroxypropylcellulose) (HPC)) was 66 % of control.
With `C[C@H](CCC[C@H](C)OS(=O)(=O)c1ccccc1)OS(=O)(=O)c1ccccc1` the T/C (endpoint: median tumor weight (est.), dose: 25.0 mg/kg/injection, schedule: Q07DX005 (ip), vehicle: saline with Tween-80) was 57 % of control, the T/C (endpoint: median tumor weight (est.), dose: 50.0 mg/kg/injection, schedule: Q07DX005 (ip), vehicle: saline with Tween-80) was 41 % of control and the T/C (endpoint: median tumor weight (est.), dose: 100.0 mg/kg/injection, schedule: Q07DX005 (ip), vehicle: saline with Tween-80) was 57 % of control. For the same compound, the T/C (endpoint: median tumor weight (est.), dose: 200.0 mg/kg/injection, schedule: Q07DX005 (ip), vehicle: saline with Tween-80) was 39 % of control.
With `CC(=O)C(O)N1C(=O)C=CC1=O` (configuration not stated) the T/C (endpoint: median tumor weight (est.), dose: 0.62 mg/kg/injection, schedule: Q07DX005 (ip), vehicle: saline) was 78 % of control, the T/C (endpoint: median tumor weight (est.), dose: 1.25 mg/kg/injection, schedule: Q07DX005 (ip), vehicle: saline) was 74 % of control and the T/C (endpoint: median tumor weight (est.), dose: 2.5 mg/kg/injection, schedule: Q07DX005 (ip), vehicle: saline) was 77 % of control. The T/C (endpoint: median tumor weight (est.), dose: 5.0 mg/kg/injection, schedule: Q07DX005 (ip), vehicle: saline) was 50 % of control.
`N=C1CCCS1` was tested, and the T/C (endpoint: median tumor weight change, dose: 125.0 mg/kg/injection, schedule: Q01DX001 (ip), vehicle: saline) was 93 % of control and the T/C (endpoint: median tumor weight change, dose: 250.0 mg/kg/injection, schedule: Q01DX001 (ip), vehicle: saline) was 89 % of control.
With `COC1C(O)CC(OC2CC(OC3CC(O[C@@H]4C(=O)c5c(cc6cc(OC7CC(OC8CC(O)C(O)C(C)O8)C(O)C(C)O7)c(C)c(O)c6c5O)C[C@H]4[C@H](OC)C(=O)[C@@H](O)[C@@H](C)O)OC(C)C3O)OC(C)C2O)OC1C` (some centres not stated) the T/C (endpoint: median tumor weight (est.), dose: 0.18 mg/kg/injection, schedule: Q07DX005 (ip), vehicle: saline) was 88 % of control and the T/C (endpoint: median tumor weight (est.), dose: 0.75 mg/kg/injection, schedule: Q07DX005 (ip), vehicle: saline) was 24 % of control and 42 % of control.
With `COc1ccc(C[C@H](N)C(=O)NC2C(CO)OC(n3cnc4c(N(C)C)ncnc43)C2O)cc1` (some centres not stated) the T/C (endpoint: median tumor weight (est.), dose: 48.0 mg/kg/injection, schedule: Q07DX005 (ip), vehicle: saline) was 90 % of control, the T/C (endpoint: median tumor weight (est.), dose: 96.0 mg/kg/injection, schedule: Q07DX005 (ip), vehicle: saline) was 63 % of control and the T/C (endpoint: median tumor weight (est.), dose: 192.0 mg/kg/injection, schedule: Q07DX005 (ip), vehicle: saline) was 62 % of control. The T/C (endpoint: median tumor weight (est.), dose: 384.0 mg/kg/injection, schedule: Q07DX005 (ip), vehicle: saline) was 16 % of control.
